Test [1] addresses T1, 5-hydroxytryptamine receptor 6 (Homo sapiens, UniProt P50406). Nature of the test: Displacement of [3H]LSD from 5HT6 receptor expressed in HEK293 cells at 10 uM. Type of test: cell-based. For orientation: In a radioligand displacement assay an active substance lowers the binding of a labelled ligand.
Test [2] has as its target T2, 5-hydroxytryptamine receptor 2A (Homo sapiens, UniProt P28223). Briefly: Binding affinity at 5HT2A receptor at 1 uM.
Test [3] has as its target 5-hydroxytryptamine receptor 2B (Homo sapiens) (UniProt P41595). Nature of the test: Binding affinity at 5HT2B receptor at 1 uM.
For test [4], the target named is T3, 5-hydroxytryptamine receptor 2C (Homo sapiens) (UniProt P28335).
T3 sequence (whole entry): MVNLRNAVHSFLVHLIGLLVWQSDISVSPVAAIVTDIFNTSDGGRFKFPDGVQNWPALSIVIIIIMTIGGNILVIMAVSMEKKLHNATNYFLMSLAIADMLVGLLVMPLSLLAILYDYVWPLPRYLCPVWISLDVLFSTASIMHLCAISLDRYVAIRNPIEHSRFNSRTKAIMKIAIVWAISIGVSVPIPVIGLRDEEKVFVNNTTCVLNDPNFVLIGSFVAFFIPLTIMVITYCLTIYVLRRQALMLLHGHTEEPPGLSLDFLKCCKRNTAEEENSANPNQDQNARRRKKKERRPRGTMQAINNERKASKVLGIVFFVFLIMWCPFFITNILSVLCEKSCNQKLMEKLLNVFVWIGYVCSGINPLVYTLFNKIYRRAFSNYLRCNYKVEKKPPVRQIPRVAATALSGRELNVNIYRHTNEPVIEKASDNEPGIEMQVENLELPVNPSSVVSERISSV
Briefly: Binding affinity at 5HT2C receptor at 1 uM.

Test [5] addresses 5-hydroxytryptamine receptor 7 (Homo sapiens) (UniProt P34969). Nature of the test: Binding affinity at 5HT7 receptor at 1 uM.
Test [6] concerns the target Histamine H1 receptor (Homo sapiens) (UniProt P35367). Nature of the test: Binding affinity at histamine H1 receptor at 1 uM.
Test [7] deals with 5-hydroxytryptamine receptor 2B (Homo sapiens) (UniProt P41595). Briefly: Inhibition of 5HT2B receptor at 10 uM.
Test [8] has as its target T3, 5-hydroxytryptamine receptor 2C (Homo sapiens). Briefly: Inhibition of 5HT2C receptor at 10 uM.
The target in test [9] is Histamine H1 receptor (Homo sapiens) (UniProt P35367). Nature of the test: Inhibition of histamine H1 receptor at 10 uM.
For test [10], the target named is D(3) dopamine receptor (Homo sapiens) (UniProt P35462). Briefly: Inhibition of dopamine D3 receptor at 10 uM.
Test [11] addresses Sodium-dependent serotonin transporter (Homo sapiens) (UniProt P31645). Nature of the test: Inhibition of SERT at 10 uM.
Test [12] has as its target T4, 5-hydroxytryptamine receptor 3A (Homo sapiens) (UniProt P46098).
T4 sequence (whole entry): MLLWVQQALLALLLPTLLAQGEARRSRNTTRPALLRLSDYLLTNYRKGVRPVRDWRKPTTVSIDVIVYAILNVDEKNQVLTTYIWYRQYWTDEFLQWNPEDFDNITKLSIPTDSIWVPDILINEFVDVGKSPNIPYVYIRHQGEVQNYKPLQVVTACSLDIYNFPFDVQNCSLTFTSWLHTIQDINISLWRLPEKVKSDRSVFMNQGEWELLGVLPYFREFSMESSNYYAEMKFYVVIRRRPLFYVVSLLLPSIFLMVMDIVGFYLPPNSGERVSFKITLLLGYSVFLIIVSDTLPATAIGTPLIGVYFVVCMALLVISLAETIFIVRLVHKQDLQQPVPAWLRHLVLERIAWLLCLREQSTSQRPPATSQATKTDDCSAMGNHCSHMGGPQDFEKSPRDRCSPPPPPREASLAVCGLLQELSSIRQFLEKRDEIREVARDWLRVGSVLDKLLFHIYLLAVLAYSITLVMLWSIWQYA
Nature of the test: Inhibition of 5HT3 receptor at 10 uM.

Test [13] deals with 5-hydroxytryptamine receptor 4 (Homo sapiens) (UniProt Q13639). Nature of the test: Inhibition of 5HT4 receptor at 10 uM.
For test [14], the target named is 5-hydroxytryptamine receptor 5A (Homo sapiens) (UniProt P47898). Nature of the test: Inhibition of 5HT5A receptor at 10 uM.
In test [15] the target is T5, 5-hydroxytryptamine receptor 1A (Homo sapiens) (UniProt P08908).
T5 sequence (whole entry): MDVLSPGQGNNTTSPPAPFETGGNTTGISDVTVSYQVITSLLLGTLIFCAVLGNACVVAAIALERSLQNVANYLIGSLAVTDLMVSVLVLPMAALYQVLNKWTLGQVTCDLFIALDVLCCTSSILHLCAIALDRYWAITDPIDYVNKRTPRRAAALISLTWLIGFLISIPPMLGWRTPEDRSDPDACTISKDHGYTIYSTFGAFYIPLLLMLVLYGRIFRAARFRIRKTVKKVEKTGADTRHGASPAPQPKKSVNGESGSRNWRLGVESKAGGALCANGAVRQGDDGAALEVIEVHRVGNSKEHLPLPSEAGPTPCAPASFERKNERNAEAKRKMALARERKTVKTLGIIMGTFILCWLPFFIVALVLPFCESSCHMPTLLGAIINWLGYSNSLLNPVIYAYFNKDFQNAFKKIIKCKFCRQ
Briefly: Inhibition of 5HT1A receptor at 10 uM.

Test [16] deals with 5-hydroxytryptamine receptor 1B (Homo sapiens) (UniProt P28222). Nature of the test: Inhibition of 5HT1B receptor at 10 uM.
The target in test [17] is 5-hydroxytryptamine receptor 7 (Homo sapiens) (UniProt P34969). Nature of the test: Inhibition of 5HT7 receptor at 10 uM.
The target in test [18] is T1, 5-hydroxytryptamine receptor 6. Nature of the test: Displacement of [3H]LSD from 5HT6 receptor expressed in HEK293 cells. The format is cell-based.
Test [19] addresses T2, 5-hydroxytryptamine receptor 2A. Briefly: Binding affinity at 5HT2A receptor.

The source made the active and inactive calls. No cut-off for these calls is given here.

As a reminder, the inhibition is the share of the control response that was lost under treatment. Lower therefore signals a response near the control. One may read the Ki as the equilibrium dissociation constant of an inhibitor or competing ligand from its target.

Chain of Histamine H1 receptor (Homo sapiens) (P35367 whole entry): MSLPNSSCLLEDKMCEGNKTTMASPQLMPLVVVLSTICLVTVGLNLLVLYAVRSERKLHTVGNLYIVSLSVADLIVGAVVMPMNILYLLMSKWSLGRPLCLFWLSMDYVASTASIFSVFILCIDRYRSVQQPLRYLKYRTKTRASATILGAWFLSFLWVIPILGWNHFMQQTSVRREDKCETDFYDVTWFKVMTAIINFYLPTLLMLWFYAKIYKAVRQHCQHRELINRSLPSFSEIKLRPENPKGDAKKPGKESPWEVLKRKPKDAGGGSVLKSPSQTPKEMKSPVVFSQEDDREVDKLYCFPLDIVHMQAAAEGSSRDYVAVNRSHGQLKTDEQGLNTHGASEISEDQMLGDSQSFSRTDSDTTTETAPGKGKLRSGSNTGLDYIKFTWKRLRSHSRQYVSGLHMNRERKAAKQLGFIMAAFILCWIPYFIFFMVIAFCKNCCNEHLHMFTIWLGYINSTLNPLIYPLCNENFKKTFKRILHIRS
Chain of 5-hydroxytryptamine receptor 7 (Homo sapiens) (P34969 whole entry): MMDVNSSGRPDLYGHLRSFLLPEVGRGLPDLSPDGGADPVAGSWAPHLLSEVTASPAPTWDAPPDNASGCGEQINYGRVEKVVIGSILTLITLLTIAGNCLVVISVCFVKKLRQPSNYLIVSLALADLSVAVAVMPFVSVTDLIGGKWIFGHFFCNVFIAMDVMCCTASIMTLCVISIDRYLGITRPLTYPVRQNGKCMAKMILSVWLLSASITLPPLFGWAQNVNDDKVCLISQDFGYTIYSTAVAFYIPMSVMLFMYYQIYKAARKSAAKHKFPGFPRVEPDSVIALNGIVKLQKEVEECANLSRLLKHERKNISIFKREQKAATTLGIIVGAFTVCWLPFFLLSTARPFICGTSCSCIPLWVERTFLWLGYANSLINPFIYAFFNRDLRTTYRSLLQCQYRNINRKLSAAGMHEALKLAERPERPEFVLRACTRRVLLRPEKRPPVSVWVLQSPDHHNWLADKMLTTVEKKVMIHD
T1 sequence (P50406 whole entry): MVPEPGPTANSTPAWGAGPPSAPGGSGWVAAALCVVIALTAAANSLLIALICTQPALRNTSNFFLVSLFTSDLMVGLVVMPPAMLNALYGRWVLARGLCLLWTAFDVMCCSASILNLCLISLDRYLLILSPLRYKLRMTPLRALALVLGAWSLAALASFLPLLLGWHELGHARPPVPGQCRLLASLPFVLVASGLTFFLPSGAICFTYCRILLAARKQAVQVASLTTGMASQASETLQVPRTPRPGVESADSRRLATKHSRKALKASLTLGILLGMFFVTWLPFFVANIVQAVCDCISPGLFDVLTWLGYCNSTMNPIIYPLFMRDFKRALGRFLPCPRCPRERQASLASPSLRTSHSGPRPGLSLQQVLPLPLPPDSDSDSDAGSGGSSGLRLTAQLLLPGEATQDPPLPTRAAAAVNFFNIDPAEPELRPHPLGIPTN
Chain of 5-hydroxytryptamine receptor 2B (Homo sapiens) (P41595 whole entry): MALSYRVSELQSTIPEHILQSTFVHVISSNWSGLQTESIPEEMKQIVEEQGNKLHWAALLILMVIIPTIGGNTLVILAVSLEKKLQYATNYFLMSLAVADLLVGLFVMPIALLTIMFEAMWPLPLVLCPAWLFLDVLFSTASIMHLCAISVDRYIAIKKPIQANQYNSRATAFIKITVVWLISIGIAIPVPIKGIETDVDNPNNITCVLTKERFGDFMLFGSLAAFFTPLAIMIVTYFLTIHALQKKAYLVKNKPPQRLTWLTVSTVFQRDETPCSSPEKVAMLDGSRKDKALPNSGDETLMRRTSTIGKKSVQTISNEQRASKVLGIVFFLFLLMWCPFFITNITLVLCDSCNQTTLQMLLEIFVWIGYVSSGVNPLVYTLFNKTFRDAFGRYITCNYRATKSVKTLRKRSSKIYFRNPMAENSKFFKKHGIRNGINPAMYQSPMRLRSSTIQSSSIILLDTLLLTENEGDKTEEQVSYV
T2 sequence (P28223 whole entry): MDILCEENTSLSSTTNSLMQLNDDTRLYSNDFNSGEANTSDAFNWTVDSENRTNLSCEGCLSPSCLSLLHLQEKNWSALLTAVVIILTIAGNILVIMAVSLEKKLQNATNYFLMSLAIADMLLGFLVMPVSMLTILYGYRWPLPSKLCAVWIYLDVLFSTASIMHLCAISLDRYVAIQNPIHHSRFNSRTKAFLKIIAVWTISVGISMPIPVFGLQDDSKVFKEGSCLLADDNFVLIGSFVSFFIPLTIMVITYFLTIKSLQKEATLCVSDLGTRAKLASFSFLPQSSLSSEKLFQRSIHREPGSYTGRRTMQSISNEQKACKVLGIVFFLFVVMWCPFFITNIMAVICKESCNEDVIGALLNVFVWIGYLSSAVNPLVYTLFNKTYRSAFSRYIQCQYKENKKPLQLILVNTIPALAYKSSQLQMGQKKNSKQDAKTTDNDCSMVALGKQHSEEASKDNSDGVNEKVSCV
Chain of 5-hydroxytryptamine receptor 5A (Homo sapiens) (P47898 whole entry): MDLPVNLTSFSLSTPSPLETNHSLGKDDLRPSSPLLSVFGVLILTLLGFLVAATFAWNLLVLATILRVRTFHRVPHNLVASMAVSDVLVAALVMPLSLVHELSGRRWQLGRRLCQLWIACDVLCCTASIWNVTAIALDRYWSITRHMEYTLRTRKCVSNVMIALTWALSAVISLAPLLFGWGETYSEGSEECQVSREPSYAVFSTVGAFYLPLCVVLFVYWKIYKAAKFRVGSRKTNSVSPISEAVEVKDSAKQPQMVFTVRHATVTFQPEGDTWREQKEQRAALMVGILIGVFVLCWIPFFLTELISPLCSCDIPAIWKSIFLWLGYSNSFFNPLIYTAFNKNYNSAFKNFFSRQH
Chain of D(3) dopamine receptor (Homo sapiens) (P35462 whole entry): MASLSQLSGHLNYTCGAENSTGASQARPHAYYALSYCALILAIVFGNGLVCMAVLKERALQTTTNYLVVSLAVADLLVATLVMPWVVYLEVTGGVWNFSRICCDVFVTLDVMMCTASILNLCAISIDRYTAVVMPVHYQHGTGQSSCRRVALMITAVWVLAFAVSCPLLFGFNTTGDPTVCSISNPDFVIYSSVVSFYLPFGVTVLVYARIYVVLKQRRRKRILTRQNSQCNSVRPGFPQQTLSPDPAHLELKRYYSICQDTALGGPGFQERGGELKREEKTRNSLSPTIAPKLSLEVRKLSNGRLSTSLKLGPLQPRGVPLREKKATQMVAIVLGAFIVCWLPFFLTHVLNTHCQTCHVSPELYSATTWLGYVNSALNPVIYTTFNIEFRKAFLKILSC
Chain of 5-hydroxytryptamine receptor 4 (Homo sapiens) (Q13639 whole entry): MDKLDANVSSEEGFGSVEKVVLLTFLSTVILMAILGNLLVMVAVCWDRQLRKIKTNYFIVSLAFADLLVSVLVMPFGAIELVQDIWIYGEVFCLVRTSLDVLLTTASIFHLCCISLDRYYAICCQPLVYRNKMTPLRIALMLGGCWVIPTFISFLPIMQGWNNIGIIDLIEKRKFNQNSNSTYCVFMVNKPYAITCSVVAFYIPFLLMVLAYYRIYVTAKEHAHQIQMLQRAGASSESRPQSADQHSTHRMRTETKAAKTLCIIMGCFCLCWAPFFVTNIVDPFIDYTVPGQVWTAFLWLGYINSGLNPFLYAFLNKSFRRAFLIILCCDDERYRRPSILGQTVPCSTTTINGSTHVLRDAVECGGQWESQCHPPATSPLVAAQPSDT
Chain of 5-hydroxytryptamine receptor 1B (Homo sapiens) (P28222 whole entry): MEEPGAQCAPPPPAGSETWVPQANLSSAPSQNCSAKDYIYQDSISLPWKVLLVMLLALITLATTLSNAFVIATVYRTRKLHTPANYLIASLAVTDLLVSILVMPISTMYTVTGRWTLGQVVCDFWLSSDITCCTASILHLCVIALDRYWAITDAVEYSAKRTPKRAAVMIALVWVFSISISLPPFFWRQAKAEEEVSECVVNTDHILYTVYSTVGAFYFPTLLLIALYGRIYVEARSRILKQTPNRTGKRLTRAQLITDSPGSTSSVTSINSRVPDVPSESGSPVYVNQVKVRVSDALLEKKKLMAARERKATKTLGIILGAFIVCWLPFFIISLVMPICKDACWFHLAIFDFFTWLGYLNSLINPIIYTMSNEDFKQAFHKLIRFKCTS
Chain of Sodium-dependent serotonin transporter (Homo sapiens) (P31645 whole entry, looked up): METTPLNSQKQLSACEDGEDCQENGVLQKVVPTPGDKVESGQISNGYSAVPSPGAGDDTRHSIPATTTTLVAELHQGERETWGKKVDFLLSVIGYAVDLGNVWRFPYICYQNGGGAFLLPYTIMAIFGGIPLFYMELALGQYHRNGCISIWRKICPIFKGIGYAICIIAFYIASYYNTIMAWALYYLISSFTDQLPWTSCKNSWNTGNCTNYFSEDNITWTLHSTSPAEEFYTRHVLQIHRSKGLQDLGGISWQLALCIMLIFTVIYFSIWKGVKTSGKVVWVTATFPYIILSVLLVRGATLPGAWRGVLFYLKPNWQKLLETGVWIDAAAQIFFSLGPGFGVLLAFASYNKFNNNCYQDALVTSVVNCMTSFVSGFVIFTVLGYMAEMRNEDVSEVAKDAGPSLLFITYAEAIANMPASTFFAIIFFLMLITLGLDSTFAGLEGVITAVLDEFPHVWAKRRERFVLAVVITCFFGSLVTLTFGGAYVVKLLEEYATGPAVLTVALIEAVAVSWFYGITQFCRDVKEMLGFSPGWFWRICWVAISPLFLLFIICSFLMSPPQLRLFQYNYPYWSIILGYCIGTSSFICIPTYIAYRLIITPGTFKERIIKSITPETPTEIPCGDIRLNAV

In test [1], `Cc1ccc(OCCNc2cc(N3CCN(C)CC3)ccc2[N+](=O)[O-])cc1C` had an Activity of 67%. Same read-out and setting: the figure for `COc1ccc(CCNc2cc(N3CCNCC3)ccc2[N+](=O)[O-])cc1OC` is 59%. Take `CN1CCN(c2ccc(NS(=O)(=O)c3ccccc3)c(NCc3ccccc3)c2)CC1`: the inhibition was found to be 61% in [2]; 63% in test [3]; 14% in test [4]; 6% in test [5]; 2% in test [6]. In turn, `CC(Nc1cc(N2CCNCC2)ccc1[N+](=O)[O-])c1ccccc1` (centres undefined) came in with an Activity in test [1] of 13%. `CN1CCN(c2ccc([N+](=O)[O-])c(NCc3ccco3)c2)CC1`: the inhibition was greater than 90% in [7]; greater than 90% in test [8]; greater than 90% in test [9]; greater than 90% in [10]; greater than 90% in test [11]; less than 40% in [12]. Further, the inhibition in test [13] is less than 40%; in [14] it was less than 40%; in test [15], 61%; in test [16] it was 61%; in test [17], 61%. Take `CC(=O)Nc1cc(N2CCN(C)CC2)ccc1N(Cc1ccccc1)C(C)=O`: the result in test [18] was inactive.

`CN1CCN(c2ccc([N+](=O)[O-])c(-n3ncccc3=O)c2)CC1` had an Activity in test [1] of 24%. As to `CN1CCN(c2ccc(C(=O)O)c(NCc3ccccc3)c2)CC1`, in [1], the Activity was found to be 49%. Take `COc1cc(N2CCN(C)CC2)ccc1NCc1ccccc1`: the Activity in [1] was determined as 49%. The molecule `CN1CCN(c2ccc(OCc3ccccc3)c(NCc3ccccc3)c2)CC1` gave a Ki in test [18] of 928 nM. Same read-out and setting: the figure for `CN(C)CCc1c[nH]c2ccc(NS(=O)(=O)c3ccc4c(Cl)cccc4c3)cc12` is 0.7 nM. Take `COc1ccc(N2CCN(C)CC2)cc1NCc1ccco1`: the Activity in test [1] was 53%. Consider `CN1CCN(c2ccc([N+](=O)[O-])c(Oc3ccccc3)c2)CC1`, for which the Ki in test [18] amounted to 27 nM. On to `COc1ccc(CCNc2cc(N3CCN(C)CC3)ccc2[N+](=O)[O-])cc1OC`, for which the Activity in [1] is 24%. The molecule `CN1CCN(c2ccc(C#N)c(NCc3ccccc3)c2)CC1` gave an inhibition constant (Ki) in test [19] of 47 nM. Besides, the inhibition in [3] came out at 68%; in [4], 72%; in test [5], 52%; in test [6] it was 65%. In test [18], `O=[N+]([O-])c1ccc(N2CCNCC2)cc1NCc1ccccc1` had an inhibition constant (Ki) of 28 nM.

In test [18], `NCCNc1ccc([N+](=O)[O-])c(NCc2ccccc2)c1` came in with a Ki of 1490 nM. `CN1CCN(c2ccc([N+](=O)[O-])c(NCCc3ccccc3)c2)CC1` displayed a Ki in test [18] (hek293) of 119 nM. In test [1], `Cc1cccc(OCCNc2cc(N3CCN(C)CC3)ccc2[N+](=O)[O-])c1` came in with an Activity of 10%.

`CN1CCN(c2ccc(C(=O)O)c(NCc3ccco3)c2)CC1`: the outcome in test [18] was inactive.

In test [18], `CN1CCN(c2ccc(C#N)c(NCc3ccco3)c2)CC1` returned a Ki of 1360 nM. This counts as single-digit micromolar. The same measure, in the same setting: next, `O=[N+]([O-])c1ccc(N2CCNCC2)cc1NCc1ccc(Cl)cc1`: 8 nM.

The molecule `CN1CCN(c2ccc(NCc3ccccc3)c(C(=O)O)c2)CC1` showed an Activity in test [1] of 37%. In test [1], `CN1CCN(c2ccc([N+](=O)[O-])c(NCCOc3ccc(Cl)cc3)c2)CC1` registered an Activity of 21%.

Take `COC(=O)c1cc(N2CCN(C)CC2)ccc1NCc1ccccc1`: in test [18], the Ki was 1890 nM. That is a single-digit micromolar value. In test [1], `CN1CCN(c2ccc([N+](=O)[O-])c(NCc3ccccc3)c2)CC1` returned an Activity of 74%. On the same count and under the same terms, the figure for `CN1CCN(c2ccc([N+](=O)[O-])c(NCCn3cccc3)c2)CC1` is 78%. The same measure, in the same setting: next, `COc1cccc(OCCNc2cc(N3CCN(C)CC3)ccc2[N+](=O)[O-])c1`: 22%; `COC(=O)c1ccc(N2CCN(C)CC2)cc1NCc1ccccc1`: 72%; `CN1CCN(c2ccc([N+](=O)[O-])c(N(C)C(=O)c3ccccc3)c2)CC1`: 49%. With `COc1ccc(N2CCN(C)CC2)cc1NCCc1ccccc1`, the affinity in test [18], expressed as Ki, was 1010 nM.

On to `CN1CCN(c2ccc(NCc3ccccc3)c([N+](=O)[O-])c2)CC1`, for which the Activity in test [1] was found to be 64%. In test [18], `CN1CCN(c2ccc([N+](=O)[O-])c(-n3nc(-c4ccccc4)c4ccccc4c3=O)c2)CC1` displayed a Ki of 1220 nM. Take `CN1CCN(c2ccc([N+](=O)[O-])c(NC(=O)c3ccccc3)c2)CC1`: the result in [18] was inactive.

For the molecule `CN1CCN(c2ccc(C(=O)O)c(NCCc3ccccc3)c2)CC1`, the result in [18] was inactive. `COC(=O)c1ccc(N2CCN(C)CC2)cc1NCc1ccco1`: in test [1], the Activity was determined as 31%.

Values taken from ChEMBL document CHEMBL1140533, “Discovery of 5-HT6 receptor ligands based on virtual HTS” (Bioorg Med Chem Lett, 2007).
